According to ChEMBL document CHEMBL1136712, “Oxyguanidines: application to non-peptidic phenyl-based thrombin inhibitors” (Bioorg Med Chem Lett, 2003):

Experiments:
Prothrombin = Prothrombin (Homo sapiens, UniProt P00734); test: Inhibitory activity against alpha-human thrombin
Canis familiaris = organism: Canis familiaris; test: In vitro metabolic potential in dog liver microsomes; type: ADME, Canis lupus familiaris
Neutrophil elastase = molecular target: T1, Neutrophil elastase (Homo sapiens, UniProt P08246); test: In vitro inhibitory activity against serine protease Elastase
T1 sequence (P08246 whole entry): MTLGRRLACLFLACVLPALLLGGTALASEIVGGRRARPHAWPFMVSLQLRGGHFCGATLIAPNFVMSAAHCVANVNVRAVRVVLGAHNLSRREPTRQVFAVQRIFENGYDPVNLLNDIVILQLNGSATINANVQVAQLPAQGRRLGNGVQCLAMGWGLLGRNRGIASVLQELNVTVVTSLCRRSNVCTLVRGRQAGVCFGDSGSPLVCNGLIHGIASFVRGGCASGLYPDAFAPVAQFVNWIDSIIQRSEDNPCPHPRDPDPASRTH

Mus musculus = organism: Mus musculus; test: In vitro metabolic potential in mouse liver microsomes; type: ADME
Coagulation factor X = Coagulation factor X (Homo sapiens, UniProt P00742); test: In vitro inhibitory activity against serine protease FXa
Rattus norvegicus = organism: Rattus norvegicus; test: In vitro metabolic potential in rat liver microsomes; type: ADME
[1] = In vitro metabolic potential in human liver microsomes; type: ADME, Microsome
[2] = Oral bioavailability in dog; type: ADME, organism-based, Canis lupus familiaris; conditions: in vivo
[3] = Plasma clearance rate by iv administration in dog at a dose of 6 mg/kg; type: ADME, organism-based, Canis lupus familiaris; set-up: dose 6 mg/kg, route intravenous
Serine protease 1 = Serine protease 1 (Homo sapiens, UniProt P07477); test: In vitro inhibitory activity against serine protease Trypsin
Chymotrypsinogen B = Chymotrypsinogen B (Homo sapiens, UniProt P17538); test: In vitro inhibitory activity against serine protease Chymotrypsin
[4] = Disassociation constant was determined; type: ADME
Plasminogen = Plasminogen (Homo sapiens, UniProt P00747); test: In vitro inhibitory activity against serine protease Plasmin
[5] = Half life period by iv administration in dog at a dose of 6 mg/kg; type: ADME, organism-based, Canis lupus familiaris; set-up: dose 6 mg/kg, route intravenous; conditions: in vivo
Homo sapiens = organism: Homo sapiens; test: The apparent permeability coefficient (Papp) was quantitated in the human Caco-2 monolayer assay; type: functional

Chain of Coagulation factor X (P00742 41-179 limits assumed): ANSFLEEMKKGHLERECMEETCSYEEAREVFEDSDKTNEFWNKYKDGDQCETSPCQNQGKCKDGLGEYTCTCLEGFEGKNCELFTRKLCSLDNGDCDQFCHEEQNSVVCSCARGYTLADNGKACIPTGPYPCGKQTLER
Chain of Coagulation factor X (P00742 235-488 limits assumed): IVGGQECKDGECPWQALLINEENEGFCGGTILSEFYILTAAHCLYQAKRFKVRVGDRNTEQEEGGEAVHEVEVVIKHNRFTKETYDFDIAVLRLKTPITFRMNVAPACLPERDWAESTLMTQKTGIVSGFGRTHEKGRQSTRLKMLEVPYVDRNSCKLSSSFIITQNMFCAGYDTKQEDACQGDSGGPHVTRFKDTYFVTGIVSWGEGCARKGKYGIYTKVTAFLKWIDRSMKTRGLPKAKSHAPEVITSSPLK
Chain of Plasminogen (P00747 97-580 limits assumed): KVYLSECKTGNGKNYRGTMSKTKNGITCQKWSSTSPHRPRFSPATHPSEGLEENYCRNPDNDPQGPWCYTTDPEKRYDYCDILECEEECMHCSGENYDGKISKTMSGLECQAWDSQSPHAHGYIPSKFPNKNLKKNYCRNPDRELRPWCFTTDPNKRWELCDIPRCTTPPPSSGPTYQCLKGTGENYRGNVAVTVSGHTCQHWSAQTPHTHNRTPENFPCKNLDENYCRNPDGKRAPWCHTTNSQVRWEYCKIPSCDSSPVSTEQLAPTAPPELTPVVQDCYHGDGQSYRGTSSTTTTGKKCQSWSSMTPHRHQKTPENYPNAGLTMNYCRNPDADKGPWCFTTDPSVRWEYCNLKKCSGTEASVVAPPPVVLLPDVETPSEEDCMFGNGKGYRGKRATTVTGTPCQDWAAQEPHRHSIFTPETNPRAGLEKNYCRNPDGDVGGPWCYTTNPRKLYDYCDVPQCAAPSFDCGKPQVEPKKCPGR
Chain of Plasminogen (P00747 581-810 limits assumed): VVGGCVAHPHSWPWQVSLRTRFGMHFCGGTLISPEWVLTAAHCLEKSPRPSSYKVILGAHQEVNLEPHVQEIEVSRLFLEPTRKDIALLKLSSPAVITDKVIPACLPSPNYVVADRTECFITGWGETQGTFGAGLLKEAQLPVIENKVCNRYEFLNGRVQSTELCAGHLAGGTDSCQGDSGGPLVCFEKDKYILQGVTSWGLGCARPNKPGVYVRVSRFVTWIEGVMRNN
Chain of Chymotrypsinogen B (P17538 34-164 limits assumed, other chains not shown): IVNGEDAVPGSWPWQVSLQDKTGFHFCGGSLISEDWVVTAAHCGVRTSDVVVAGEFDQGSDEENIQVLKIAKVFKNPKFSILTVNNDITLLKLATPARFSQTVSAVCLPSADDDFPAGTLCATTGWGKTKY
Chain of Chymotrypsinogen B (P17538 167-263 limits assumed, other chains not shown): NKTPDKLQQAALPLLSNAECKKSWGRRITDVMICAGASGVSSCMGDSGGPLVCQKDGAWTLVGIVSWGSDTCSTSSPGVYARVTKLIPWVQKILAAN
Chain of Serine protease 1 (P07477 whole entry): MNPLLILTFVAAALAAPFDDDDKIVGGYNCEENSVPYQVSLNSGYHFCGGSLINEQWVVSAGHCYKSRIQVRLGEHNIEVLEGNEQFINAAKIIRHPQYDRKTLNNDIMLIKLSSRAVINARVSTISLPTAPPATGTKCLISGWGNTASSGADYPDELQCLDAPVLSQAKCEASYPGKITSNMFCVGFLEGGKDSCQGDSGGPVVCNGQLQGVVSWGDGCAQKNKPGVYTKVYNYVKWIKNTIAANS

Ki (Prothrombin) [nM] | Compound | also measured
204 | Cc1cc(OCCCON=C(N)N)cc(OS(=O)(=O)c2cccc(S(C)(=O)=O)c2)c1 | 
9.9 | Cc1cc(OCCCONC(=N)N)cc(OS(=O)(=O)c2ccccc2C#N)c1 | 
6.7 | Cc1cc(OCCCONC(=N)N)cc(OS(=O)(=O)c2cccc3cccnc23)c1 | 
49.3 | CS(=O)(=O)c1ccccc1S(=O)(=O)Oc1cc(F)cc(OCC2(CON=C(N)N)CC2)c1 | 
29.7 | CCc1cc(OCCCONC(=N)N)cc(OS(=O)(=O)c2ccccc2S(C)(=O)=O)c1 | 
 | Cc1cc(OCCCONC(=N)N)cc(OS(=O)(=O)c2ccccc2S(C)(=O)=O)c1 | Microsomal stability (Canis familiaris): 21.1 pg min-1 (mg of protein)-1; Ki (Neutrophil elastase): > 22000 nM; Microsomal stability (Mus musculus): 30.8 pg min-1 (mg of protein)-1; Ki (Coagulation factor X): > 22000 nM; Microsomal stability (Rattus norvegicus): 69.5 pg min-1 (mg of protein)-1; Microsomal stability [1]: 50.4 pg min-1 (mg of protein)-1; bioavailability [2]: 95%; clearance [3]: 6.9 mL/min/kg; Ki (Serine protease 1): > 22000 nM; Ki (Chymotrypsinogen B): > 22000 nM; pKa [4]: 7.05; Ki (Plasminogen): > 22000 nM; half-life [5]: 7.3 h
32.4 | C=C(CONC(=N)N)COc1cc(C)cc(OS(=O)(=O)c2ccccc2S(C)(=O)=O)c1 | 
34.6 | COc1cc(OCCCONC(=N)N)cc(OS(=O)(=O)c2ccccc2S(C)(=O)=O)c1 | 
137 | Cc1cc(OCC(O)CON=C(N)N)cc(OS(=O)(=O)c2ccccc2S(C)(=O)=O)c1 (stereo not drawn) | 
102 | Cc1cc(OCCCONC(=N)N)cc(OS(=O)(=O)c2ccc3c(c2)S(=O)(=O)CC3)c1 | 
114 | Cc1cc(OCC(F)CON=C(N)N)cc(OS(=O)(=O)c2ccccc2S(C)(=O)=O)c1 (stereo not drawn) | 
364 | Cc1cc(OCC(F)(F)CON=C(N)N)cc(OS(=O)(=O)c2ccccc2S(C)(=O)=O)c1 | 
749 | Cc1cc(OCCCONC(=N)N)cc(OS(=O)(=O)c2ccc(S(C)(=O)=O)cc2S(C)(=O)=O)c1 | 
86.6 | Cc1cc(OCCCON=C(N)N)cc(OS(=O)(=O)c2ccccc2N)c1 | 
39.4 | CS(=O)(=O)c1ccccc1S(=O)(=O)Oc1cc(Cl)cc(OCCCON=C(N)N)c1 | 
403 | CS(=O)(=O)c1ccccc1S(=O)(=O)Oc1cc(CO)cc(OCC2(CON=C(N)N)CC2)c1 | 
4.8 | Cc1cc(OCCCONC(=N)N)cc(OS(=O)(=O)c2ccccc2S(=O)(=O)c2ccccc2)c1 | 
6.7 | COc1ccccc1S(=O)(=O)Oc1cc(C)cc(OCCCONC(=N)N)c1 | 
31 | Cc1cc(OCCCON=C(N)N)cc(OS(=O)(=O)c2cccc3c2NCCC3)c1 | 
 | Cc1cc(OCCCON=C(N)N)cc(OS(=O)(=O)c2ccccc2S(C)(=O)=O)c1 | Papp (Homo sapiens): 2.4 ×10⁻⁶ cm/s

Compound | Ki (Prothrombin) [nM] | also measured
Cc1cc(OCCCON=C(N)N)cc(OS(=O)(=O)c2cccc3cnccc23)c1 | 13.2 | 
